Measured values taken from US20190315711A1 (eXIthera Pharmaceuticals, Inc., priority 2016, published 2019).

Legend:
human Factor XIa = human Factor XIa (Homo sapiens, UniProt P03951); assay: Factor XIa enzyme inhibition assay (dose response, fluorogenic AMC substrate); format: biochemical; set-up: Enzyme: Factor XIa; conditions: purified enzyme; substrate 50 μM, enzyme 0.25 nM; read-out: hFXIa IC50
Procedure, shortened: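 Fluorogenic assay in 20 mM Hepes pH 7.4, 150 mM NaCl, 0.02% Tween 20 with 0.25 nM enzyme and 50 μM Glp-Pro-Arg-AMC (final). Fluorescence read every minute for 30 min at 30 °C after serial two-fold compound dilution; IC50 from four-parameter Hill fit of dose-response curves.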

Trypsin = biological target: T1, Trypsin (Bos taurus, UniProt P00760); assay: Dose response assay for protease inhibitors: trypsin; format: biochemical; conditions: ratio versus Factor XIa
T1 construct: gene PRSS1
T1 sequence (P00760 24-246): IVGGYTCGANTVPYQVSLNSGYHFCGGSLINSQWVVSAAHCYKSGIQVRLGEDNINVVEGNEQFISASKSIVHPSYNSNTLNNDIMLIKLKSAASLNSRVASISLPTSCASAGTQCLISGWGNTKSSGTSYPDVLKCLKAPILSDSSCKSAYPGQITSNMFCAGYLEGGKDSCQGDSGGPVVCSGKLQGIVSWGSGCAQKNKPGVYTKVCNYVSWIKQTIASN

[1] = Caco-2 cell permeability assay (A-B and B-A); format: in vitro ADME; conditions: human; for Papp A→B at 60 min, 10 μM: A-B direction; for Papp B→A at 40 min, 10 μM: B-A direction
Procedure, shortened: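 Caco-2 monolayers were used 21-25 days post-seeding, with compound at 10 μM (1% DMSO) in HBSS-MES pH 6.5 or HBSS-HEPES pH 7.4 on the donor side. Incubation was at 37° C with shaking for 60 min (A−B) or 40 min (B−A). Donor and receiver samples were quantified by HPLC-MS/MS, and Papp and recovery were calculated.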

human Factor XIa, sequence (P03951 388-625 limits assumed): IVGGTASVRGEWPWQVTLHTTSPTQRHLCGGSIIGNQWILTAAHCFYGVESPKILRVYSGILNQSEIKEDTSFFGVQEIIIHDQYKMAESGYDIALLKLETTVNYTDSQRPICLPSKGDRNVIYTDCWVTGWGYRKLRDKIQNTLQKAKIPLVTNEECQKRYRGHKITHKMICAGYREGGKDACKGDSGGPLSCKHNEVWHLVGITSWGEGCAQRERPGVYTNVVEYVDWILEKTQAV
human Factor XIa, sequence (P03951 19-387 partner limits assumed): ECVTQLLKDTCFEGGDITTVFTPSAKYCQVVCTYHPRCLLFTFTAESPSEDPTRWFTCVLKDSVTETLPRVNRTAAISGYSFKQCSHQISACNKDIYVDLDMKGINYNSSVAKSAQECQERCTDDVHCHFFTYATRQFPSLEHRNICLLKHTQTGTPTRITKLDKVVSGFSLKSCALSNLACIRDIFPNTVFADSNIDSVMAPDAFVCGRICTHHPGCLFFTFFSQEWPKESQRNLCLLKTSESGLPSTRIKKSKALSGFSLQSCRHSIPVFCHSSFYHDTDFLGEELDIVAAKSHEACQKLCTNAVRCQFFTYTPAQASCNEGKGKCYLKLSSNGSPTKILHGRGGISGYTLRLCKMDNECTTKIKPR

Row | SMILES | IC50 (human Factor XIa) [µM] | Ratio: Trypsin/FXIa (Trypsin) | Papp A→B at 60 min, 10 μM [1] [×10⁻⁶ cm/s] | Papp B→A at 40 min, 10 μM [1] [×10⁻⁶ cm/s]
1 | CC[C@@H](NC(=O)N1C(=O)[C@H](Cc2ccnc(N)c2)[C@H]1C(=O)N(C)c1ccncc1)c1cccc(C)c1 [Compound 87] | < 0.01 | G (“G” indicates 1-100) | ≤ 10 | 31 to 50
2 | CC[C@@H](NC(=O)N1C(=O)[C@H](Cc2ccnc(NC(=O)OC(C)(C)C)c2)[C@H]1C(=O)N(C)c1ccncc1)c1cccc(Cl)c1 [Compound 127] | 0.01 to 0.1 | H (“H” indicates 101-1000) | 11 to 30 | ≤ 10
3 | CCC[C@@H](NC(=O)N1C(=O)[C@H](Cc2ccnc(N)c2)[C@H]1C(=O)N(C)c1ccccc1)C1CCCCC1 [Compound 50] | < 0.01 | G (“G” indicates 1-100) | 31 to 50 | ≤ 10
4 | CN(C(=O)[C@@H]1[C@@H](Cc2ccnc(N)c2)C(=O)N1C(=O)N[C@@H](C1CCCCC1)C1CC1)c1ccncc1 [Compound 52] | < 0.01 | G (“G” indicates 1-100) | 11 to 30 | 31 to 50
5 | CC[C@@H](NC(=O)N1C(=O)[C@H](Cc2ccnc(N)c2)[C@H]1C(=O)N(C)c1ncccn1)c1ccccc1 [Compound 84] | < 0.01 | G (“G” indicates 1-100) | ≤ 10 | 31 to 50
6 | CC[C@@H](NC(=O)N1C(=O)[C@H](Cc2ccnc(N)c2)[C@H]1C(=O)N(C)c1ncncn1)C1CCCCC1 [Compound 81] | < 0.01 | H (“H” indicates 101-1000) | 11 to 30 | 11 to 30
7 | C[C@@H](NC(=O)N1C(=O)[C@H](Cc2ccnc(N)c2)[C@H]1C(=O)N(C)c1ccccc1)C1CCCCC1 [Compound 49] | < 0.01 | G (“G” indicates 1-100) | > 50 | 11 to 30
8 | Cc1ccccc1N(C)C(=O)[C@@H]1[C@@H](Cc2ccnc(N)c2)C(=O)N1C(=O)N[C@@H](C1CCCCC1)C(F)(F)F [Compound 15] | 0.01 to 0.1 | G (“G” indicates 1-100) | 11 to 30 | ≤ 10
9 | CC[C@@H](NC(=O)N1C(=O)[C@H](Cc2ccnc(N)c2)[C@H]1C(=O)N(C)c1ccncc1)c1cccc(C#N)c1 [Compound 99] | < 0.01 | G (“G” indicates 1-100) | ≤ 10 | 11 to 30
10 | CC[C@@H](NC(=O)N1C(=O)[C@H](Cc2ccnc(N)c2)[C@H]1C(=O)N(C)c1ccccc1)c1cccnc1 [Compound 44] | < 0.01 | G (“G” indicates 1-100) | ≤ 10 | 31 to 50
11 | CN(C(=O)[C@@H]1[C@@H](Cc2ccnc(N)c2)C(=O)N1C(=O)NC(c1ccccc1)c1ccccc1)c1ccncc1 [Compound 82] | < 0.01 | G (“G” indicates 1-100) | ≤ 10 | 31 to 50
12 | CC[C@@H](NC(=O)N1C(=O)[C@H](Cc2ccnc(N)c2)[C@H]1C(=O)N(C)c1ncccn1)c1cccc(Cl)c1 [Compound 121] | < 0.01 | G (“G” indicates 1-100) | 11 to 30 | 11 to 30
13 | CCC[C@@H](NC(=O)N1C(=O)[C@H](Cc2ccnc(N)c2)[C@H]1C(=O)N(C)c1ccncc1)c1ccccc1 [Compound 86] | < 0.01 | G (“G” indicates 1-100) | ≤ 10 | 31 to 50
14 | CC[C@@H](NC(=O)N1C(=O)[C@H](Cc2ccnc(N)c2)[C@H]1C(=O)N(CC)c1ncccn1)C1CCCCC1 [Compound 39] | < 0.01 | G (“G” indicates 1-100) | 11 to 30 | 11 to 30
15 | CN(C(=O)[C@@H]1[C@@H](Cc2ccnc(N)c2)C(=O)N1C(=O)N[C@@H](C1CCCCC1)C(F)(F)F)c1ccncc1 [Compound 18] | < 0.01 | G (“G” indicates 1-100) | 11 to 30 | 11 to 30
16 | CC[C@@H](NC(=O)N1C(=O)[C@H](Cc2ccnc(N)c2)[C@H]1C(=O)N(C)c1ccncc1)c1ccccc1Cl [Compound 95] | < 0.01 | G (“G” indicates 1-100) | ≤ 10 | 31 to 50

Further lines, results first:

Row | IC50 (human Factor XIa) [µM] | Ratio: Trypsin/FXIa (Trypsin) | Papp A→B at 60 min, 10 μM [1] [×10⁻⁶ cm/s] | Papp B→A at 40 min, 10 μM [1] [×10⁻⁶ cm/s] | SMILES
17 | < 0.01 | G (“G” indicates 1-100) | 11 to 30 | ≤ 10 | CC[C@@H](NC(=O)N1C(=O)[C@H](Cc2cc(C)nc(N)c2)[C@H]1C(=O)N(C)c1ccccc1)C1CCCCC1 [Compound 91]
18 | < 0.01 | G (“G” indicates 1-100) | 11 to 30 | ≤ 10 | CC[C@@H](NC(=O)N1C(=O)[C@H](Cc2cc(C)nc(N)c2)[C@H]1C(=O)N(C)c1ccccc1)c1cccc(Cl)c1 [Compound 120]
19 | < 0.01 | G (“G” indicates 1-100) | 11 to 30 | ≤ 10 | CC[C@@H](NC(=O)N1C(=O)[C@H](Cc2ccnc(NC)c2)[C@H]1C(=O)N(C)c1ncccn1)C1CCCCC1 [Compound 80]
20 | 0.01 to 0.1 | G (“G” indicates 1-100) | 11 to 30 | > 50 | CC[C@@H](NC(=O)N1C(=O)[C@H](Cc2ccnc(N)c2)[C@H]1C(=O)N(C)c1ccccc1)C1CC1 [Compound 46]
21 | < 0.01 | G (“G” indicates 1-100) | ≤ 10 | 31 to 50 | CC[C@@H](NC(=O)N1C(=O)[C@H](Cc2ccnc(N)c2)[C@H]1C(=O)N(C)c1ccncc1)c1ccccc1 [Compound 42]
22 | < 0.01 | G (“G” indicates 1-100) | ≤ 10 | 31 to 50 | CC[C@@H](NC(=O)N1C(=O)[C@H](Cc2ccnc(N)c2)[C@H]1C(=O)N(C)c1ccncc1)C1CCCCC1 [Compound 25]
23 | < 0.01 | G (“G” indicates 1-100) | ≤ 10 | 11 to 30 | CC[C@@H](NC(=O)N1C(=O)[C@H](Cc2ccnc(N)c2)[C@H]1C(=O)N(C)c1ccncc1)c1cccc(Cl)c1 [Compound 90]
24 | < 0.01 | G (“G” indicates 1-100) | 31 to 50 | 11 to 30 | CN(C(=O)[C@@H]1[C@@H](Cc2ccnc(N)c2)C(=O)N1C(=O)N[C@@H](C1CCCCC1)C1CC1)c1ccccc1 [Compound 36]
25 | < 0.01 | G (“G” indicates 1-100) | ≤ 10 | 11 to 30 | CC[C@@H](NC(=O)N1C(=O)[C@H](Cc2ccnc(N)c2)[C@H]1C(=O)N(C)c1ncccn1)c1cccnc1 [Compound 61]
26 | 0.01 to 0.1 | – | 11 to 30 | > 50 | CN(C(=O)[C@@H]1[C@@H](Cc2ccnc(N)c2)C(=O)N1C(=O)N[C@@H](C1CC1)C(F)(F)F)c1ncccn1 [Compound 78]
27 | 0.01 to 0.1 | – | ≤ 10 | 31 to 50 | CN(C(=O)[C@@H]1[C@@H](Cc2ccnc(N)c2)C(=O)N1C(=O)N[C@@H](C1CC1)C(F)(F)F)c1ccncc1 [Compound 77]
28 | < 0.01 | G (“G” indicates 1-100) | 11 to 30 | 31 to 50 | CN(C(=O)[C@@H]1[C@@H](Cc2ccnc(N)c2)C(=O)N1C(=O)N[C@@H](C1CCCCC1)C(F)(F)F)c1cncnc1 [Compound 19]
29 | < 0.01 | G (“G” indicates 1-100) | 11 to 30 | ≤ 10 | CN(C(=O)[C@@H]1[C@@H](Cc2ccnc(N)c2)C(=O)N1C(=O)N[C@@H](C1CCCCC1)C(F)(F)F)c1cccc(F)c1 [Compound 22]
30 | < 0.01 | G (“G” indicates 1-100) | 11 to 30 | 11 to 30 | CC[C@@H](NC(=O)N1C(=O)[C@H](Cc2ccnc(N)c2)[C@H]1C(=O)N(C)c1ccccc1)C1CCCCC1 [Compound 27]
31 | < 0.01 | G (“G” indicates 1-100) | 11 to 30 | ≤ 10 | CN(C(=O)[C@@H]1[C@@H](Cc2ccnc(N)c2)C(=O)N1C(=O)N[C@@H](C1CCCCC1)C(F)(F)F)c1ncccn1 [Compound 21]
32 | 0.01 to 0.1 | G (“G” indicates 1-100) | 11 to 30 | 11 to 30 | CN(C(=O)[C@@H]1[C@@H](Cc2ccnc(N)c2)C(=O)N1C(=O)N[C@@H](C1CCCCC1)C(F)(F)F)c1cccnc1 [Compound 17]
33 | < 0.01 | G (“G” indicates 1-100) | ≤ 10 | 31 to 50 | CC[C@@H](NC(=O)N1C(=O)[C@H](Cc2ccnc(N)c2)[C@H]1C(=O)N(C)c1ccncc1)c1cccc(OC)c1 [Compound 100]
